pIC50: −log10 of the molar value. Entries after “also recorded” stand apart in the source; their conditions may differ.
Experiments:
TLR4 [1] = target: T1, TLR4 (Mus musculus, UniProt Q9QUK6); assay: LPS challenge of drug-eluting mouse islets, IL-6 expression (Example 15); type: cell-based; settings: for protection from LPS challenge (IL-6 expression): 24 h after modification or treatment
T1 construct: from tissue; host or cells: pancreatic islets of C57BL/6 mice
T1 sequence (Q9QUK6 26-835): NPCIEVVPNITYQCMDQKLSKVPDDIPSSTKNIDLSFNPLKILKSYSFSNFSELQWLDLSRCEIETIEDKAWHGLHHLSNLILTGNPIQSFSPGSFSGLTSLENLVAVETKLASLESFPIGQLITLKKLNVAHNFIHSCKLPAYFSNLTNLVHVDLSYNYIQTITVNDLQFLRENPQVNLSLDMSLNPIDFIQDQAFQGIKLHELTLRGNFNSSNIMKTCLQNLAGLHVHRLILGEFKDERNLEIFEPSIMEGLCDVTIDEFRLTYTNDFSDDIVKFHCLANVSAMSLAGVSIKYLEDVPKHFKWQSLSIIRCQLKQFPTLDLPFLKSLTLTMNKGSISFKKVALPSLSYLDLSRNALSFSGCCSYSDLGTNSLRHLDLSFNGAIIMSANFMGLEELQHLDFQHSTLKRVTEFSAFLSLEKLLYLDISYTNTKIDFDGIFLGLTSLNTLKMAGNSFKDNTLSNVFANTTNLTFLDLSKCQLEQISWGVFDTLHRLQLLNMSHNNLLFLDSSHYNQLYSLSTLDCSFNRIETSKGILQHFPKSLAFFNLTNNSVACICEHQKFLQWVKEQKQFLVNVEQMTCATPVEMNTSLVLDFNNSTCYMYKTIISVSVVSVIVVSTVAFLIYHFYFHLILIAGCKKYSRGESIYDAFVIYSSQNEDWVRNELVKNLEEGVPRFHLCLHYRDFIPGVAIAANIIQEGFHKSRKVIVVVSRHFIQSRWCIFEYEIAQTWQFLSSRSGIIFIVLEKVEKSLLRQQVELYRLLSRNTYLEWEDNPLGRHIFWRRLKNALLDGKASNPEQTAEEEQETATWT
Protocol: (§1) In order to study the function and efficacy of the cleavable prodrug, in vitro experiments were performed challenging mouse islets with LPS at different times post-modification. […] HEK Blue hTLR4 reporter cells were treated with either free TAK-242 or the TAK-PhSO2-Linker prodrug, followed by LPS challenge.
(§2) Data represented as means±SEM (n=3 per group). Statistical significance determined by two-tailed unpaired t test. n.s. means not significant.

TLR4 [2] = settings: human and murine models; depending on cell type; read-out: TLR4 inhibition IC50; cited from earlier work
TLR4 [3] = target: T1, TLR4; assay: Extended protection of modified islets, IL-6 mRNA after LPS challenge (Example 5); type: cell-based, murine; settings: LPS 2 ug/mL 4 hrs, 24 hrs after treatment or islet modification; unprotected islets ~59-fold
Protocol: Compared to free TAK-242 pre-treatment, the TAK-Linker compound covalently attached to the islet surface provides extended protection.
First, islets were modified with either TAK-Linker or TAK-HexOH (1 hr NHS-DBCO followed by 1 hr TAK compounds), or treated with free TAK-242 (3 uM, 30 min @37° C.). All islets were rinsed with culture media (RPMI 1640, 10% FBS) prior to culturing. After overnight culture, the treated groups were challenged with LPS (2 ug/mL, 4 hrs @ 37° C.), a TLR4-specific agonist, and compared to unprotected islets (LPS) and unprotected/untreated control islets.
Total RNA was isolated from the islets for mRNA analysis. The gene expression of cytokine IL-6 was used for evaluation due to its key role in acute inflammation.

TLR4 [4] = target: T1, TLR4; assay: rHMGB1 challenge of mouse islets, gene expression analysis; type: cell-based, C57BL/6 mice; settings: 1 μg/mL rHMGB1, 4 h, TAK-242 pretreatment
Protocol: Similar results were observed when islets were challenged with high-mobility group box 1 (HMGB1; FIG. 26), an endogenous damage-associated molecular pattern (DAMP) known to elicit acute inflammation through TLR4. […] Islets from C57BL/6 mice were challenged with 1 μg/mL rHMGB1 with or without TAK-242 pretreatment. After 4 h, total RNA was isolated from the islets for gene expression analysis. The proinflammatory genes (A) CXCL10 and (B) CCL2 were examined in the samples. Data represented as means±SEM. *P<0.05 (n=3 for all samples, unpaired two-tailed t test).

hTLR4 = target: T2, hTLR4 (Homo sapiens, UniProt O00206); assay: HEK Blue hTLR4 reporter cells, TLR4-mediated NFkB upregulation, colorimetric assay; type: cell-based; settings: brief treatment, unconjugated compound
T2 construct: expressed in transfected cells; host or cells: HEK Blue hTLR4 reporter cells
T2 sequence (O00206 24-839): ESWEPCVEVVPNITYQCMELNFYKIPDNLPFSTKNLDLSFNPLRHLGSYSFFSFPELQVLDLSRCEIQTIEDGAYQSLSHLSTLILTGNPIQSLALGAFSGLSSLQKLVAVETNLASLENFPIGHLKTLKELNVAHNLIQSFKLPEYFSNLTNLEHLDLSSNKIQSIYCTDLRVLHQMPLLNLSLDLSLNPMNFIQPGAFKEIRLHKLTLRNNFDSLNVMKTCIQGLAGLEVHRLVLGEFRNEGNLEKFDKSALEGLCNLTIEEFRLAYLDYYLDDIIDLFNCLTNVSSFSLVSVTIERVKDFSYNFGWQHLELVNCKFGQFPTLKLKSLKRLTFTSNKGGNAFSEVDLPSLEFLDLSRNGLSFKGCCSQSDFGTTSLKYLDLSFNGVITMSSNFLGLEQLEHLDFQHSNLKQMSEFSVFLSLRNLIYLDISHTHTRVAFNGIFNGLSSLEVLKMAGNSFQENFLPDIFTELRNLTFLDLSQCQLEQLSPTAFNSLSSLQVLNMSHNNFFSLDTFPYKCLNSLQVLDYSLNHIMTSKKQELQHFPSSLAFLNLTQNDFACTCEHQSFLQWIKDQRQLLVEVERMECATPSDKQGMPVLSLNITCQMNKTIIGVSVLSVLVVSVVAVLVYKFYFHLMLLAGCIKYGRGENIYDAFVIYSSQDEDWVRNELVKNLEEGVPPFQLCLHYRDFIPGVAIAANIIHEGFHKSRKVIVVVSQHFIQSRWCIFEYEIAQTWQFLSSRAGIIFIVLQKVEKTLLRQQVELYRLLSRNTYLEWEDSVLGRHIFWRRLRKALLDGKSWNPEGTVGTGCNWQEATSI
Protocol: as §1, §2

MIN6 cells = assay: MTT viability assay in MIN6 beta cells; type: cell-based; settings: days 1, 3 and 7, effective concentrations
Protocol: MIN6 cells were seeded in a 96-well plate at 15,000 cells per well in RPMI. After overnight culture, culture media was replaced with media containing the indicated TAK-242 concentrations. The control (0 nM TAK-242) contained 0.1% DMSO. Media was changed on day 3. On days 1, 3, and 7, an MTT viability assay was performed. Data are represented as means±SEM. P>0.05 for all samples (one-way ANOVA with Tukey's multiple-comparisons test).

TLR4 [5] = target: T1, TLR4; assay: LPS challenge of mouse islets, RT-PCR gene expression and multiplex cytokine analysis; type: cell-based, C57BL/6 mice
Protocol: To initially investigate whether free TAK-242 can protect islets from TLR4-mediated inflammation, inflammatory responses in islets from C57BL/6 mice challenged with the canonical TLR4 ligand lipopolysaccharide (LPS) were examined. As discussed in detail below, islets were treated with TAK-242 (3 μM for 30 min) before a 24-h challenge with a high dose of LPS (2 μg/mL). After 24 h, culture media was analyzed by multiplex assay, and mRNA was isolated from islet cells for analysis by real-time polymerase chain reaction (RT-PCR).
Materials and Methods. After overnight culture, islets were washed in Dulbecco's PBS (Caisson Labs, Smithfield, Utah, USA) before treatment with TAK-242 (3 μM, 30 min; MedchemExpress) and 2 μg/mL LPS-EB (Ultrapure from Escherichia coli O111:B4; Invivogen) for 24 h at 37° C. and 5% CO2. Islets were washed once with cold Dulbecco's PBS immediately after treatment, and total RNA was isolated from samples using TRIzol […] and converted to cDNA using a high capacity cDNA reverse transcription kit (Applied Biosystems) following manufacturer protocols. Quantitative expression of genes of interest was determined using RT2 SYBR Green qPCR master mix (Qiagen) on a Bio-Rad CFX Connect (Bio-Rad) with the following program: 95° C., 10 min and 40 cycles of 95° C., 15 sec, 60° C., 1 min. Primers for quantitative real-time PCR analysis were purchased from commercially available stock from Integrated DNA Technologies (Coralville). Relative gene expression was calculated using the 2-ΔΔCT method normalized to 18S mRNA. Cytokines from assay culture media were analyzed using Milliplex MCYTOMAG-70K Assay (EMD Millipore). Samples were prepared following manufacturer guidelines. Analysis was performed after overnight incubation at 4° C. on a Luminex 200 (Luminex). Samples were assayed in triplicate and analyzed in triplicate for cDNA or in duplicate for multiplex assay.

[6] = tested on: streptozotocin-induced diabetes; assay: Syngeneic islet transplant in streptozotocin-induced diabetic mice; type: in vivo, C57BL/6 mice
Protocol: With the promising in vitro results described above, islet transplantation experiments were performed in a syngeneic wild-type C57BL/6 streptozotocin-induced diabetes model. Recipient male C57BL/6 mice 6-7 weeks old were made diabetic by a single intraperitoneal injection of streptozotocin (200 mg/kg; Sigma-Aldrich). Diabetic mice are defined as having a nonfasting blood glucose >400 mg/dL for 2 consecutive days. Prior to transplantation, islets were untreated, pretreated with 3 μM TAK-242, or modified with TAK-PhSO2-Linker as described above. Diabetic C57BL/6 mice were anesthetized under isofluorane, and a field between the rib cage and pelvis on the left side was disinfected by 1% providone iodine scrub and 70% ethanol. A minimal incision (˜8 to 10 mm) into the peritoneum was made to expose the kidney, and a small cut (˜2 mm) was made in the kidney capsule using a 30G needle. Then a flame-blunted glass pipette tip was inserted into the kidney capsule through the cut to create a pocket between the renal cortex and capsule. Islets were then injected into the pocket via PE-50 polyethylene tubing (Becton Dickinson) connected to a 1 mL syringe filled with RPMI 1640 driven by an NE-300 syringe pump (New Era Pump Systems). At the completion of islet infusion, the incision was closed with 4-0 violet monofilament (Ethicon) via continuous nonlocking sutures. After closing, mice received a 0.1 mg/kg bolus of buprenorphine subcutaneously near the incision. Engraftment success was measured by nonfasting blood glucose measurements 5 times a week over a 4-week period with a Breeze 2 Glucose Monitor (Bayer). Mice were considered cured on the first day of two consecutive glucose measurements below 200 mg/dL (˜11 mM).
Diabetic mice were separated into untreated (n=4), TAK-242 (n=6), and TAK-PhO2-Linker (n=6) groups. A marginal dose of ˜100 islets was determined by titrating doses of TAK-242-treated islets. […] Diabetic C57BL/6 mice were transplanted with (FIG. 33A) 200, (FIG. 33B) 150, or (FIG. 33C) 100 TAK-242-treated islets. Blood glucose was monitored for 4 weeks before IPGTT on day 30 and at nephrectomy on day 35. […] This marginal dose was transplanted into the kidney subcapsular space in each group, and blood glucose was monitored for 4 weeks.

[7] = Linker prodrug stability and release kinetics in PBS by LC-MS; type: physicochemical; settings: phosphate-buffered saline; PBS pH 7.4, 37° C.; read-out: half-life of TAK-PhSO2-Linker (release of free TAK-242) (converted)
Protocol: The stability of the linker prodrug was explored in this example. The TAK-PhSO2-Linker compound was incubated in phosphate-buffered saline (PBS; pH 7.4) at 37° C., and the solution sampled over the course of several days. Liquid chromatography-mass spectrometry (LC-MS) was used to identify and quantitate the compounds released from this prodrug.

increase in IL-6 expression (TLR4 [3]) [fold]	CXCL10 gene expression (TLR4 [5]; 3 μM TAK-242 pretreatment 30 min, 24 h after 2 μg/mL LPS, LPS alone 26-fold) [fold]	CCL2 gene expression (TLR4 [5]; 3 μM TAK-242 pretreatment 30 min, 24 h after 2 μg/mL LPS, LPS alone 55-fold) [fold]	half-life [7] [h]	SMILES	protection against LPS-mediated inflammation (IL-6) (TLR4 [1]; islet surfaces functionalized only, no prodrug)	pIC50 (TLR4 [2])	CXCL10 and CCL2 gene expression after rHMGB1 challenge (TLR4 [4])	inhibition of TLR4-mediated NFkB upregulation after LPS challenge (hTLR4)	toxicity to beta cells (MTT viability) (MIN6 cells)	proinflammatory cytokines IL-6, CXCL1, CXCL10, CCL2, TNF-α in culture media (TLR4 [5]; TAK-242 pretreatment, 24 h after LPS challenge, versus LPS alone)	cure time and glycemic control, islet dose titration ([6]; 100 TAK-242-treated islets)	mean nonfasting blood glucose ([6]; 100 islets, 4 weeks)	mean time to cure ([6]; 100 islets, cured = two consecutive glucose measurements below 200 mg/dL) [days]	cure time and glycemic control, islet dose titration ([6]; 200 and 150 TAK-242-treated islets)	protection from LPS challenge (IL-6 expression) (TLR4 [1])	inhibition of LPS-mediated inflammation (TLR4 [1]; immediately after treatment)
–	–	–	–	O=C(CCC(=O)N1Cc2ccccc2C#Cc2ccccc21)NCCOCCOCCOCCOCCC(=O)ON1C(=O)CCC1=O [NHS-PEG4-DBCO, dibenzocyclooctyne-PEG4-N-hydroxysuccinimidyl ester]	no protection against LPS-mediated inflammation	–	–	–	–	–	–	–	–	–	–	–
~32	0.91	1.01	–	CCOC(=O)C1=CCCCC1S(=O)(=O)Nc1ccc(F)cc1Cl (stereo not shown) [TAK-242, ethyl 6-(N-(2-chloro-4-fluorophenyl)sulfamoyl)cyclohex-1-ene-1-carboxylate]	–	7.48 to 9.00	protection of mouse islets against rHMGB1-mediated TLR4 inflammation	completely blocked LPS; also recorded: completely inhibited the upregulation of NFkB	negligible toxicity	significantly lower levels of these cytokines	delayed cure time and exhibited significant average glycemic lability	demonstrated some control	21.0 ± 4.9	quick cure times and good glycemic control	beings to lose its effectiveness by 24 h; also recorded: provided protection from TLR4-mediated inflammation 24 hours post treatment	completely inhibit LPS-mediated inflammation
~3	–	–	~25	CCOC(=O)C1=CCCCC1S(=O)(=O)N(C(=O)OC(CCCCCN=[N+]=[N-])CS(=O)(=O)c1ccccc1)c1ccc(F)cc1Cl (stereo not shown) [TAK-PhSO2-Linker]	–	–	–	negligible TLR4-antagonist activity; also recorded: provided no protection; also recorded: no significant protection	–	–	–	–	–	–	significantly protected from LPS challenge; also recorded: significantly better than that of free TAK-242 alone; also recorded: significantly protected against LPS-mediated inflammation	–

Reference: patent publication US10814036B2, “Drug-eluting live tissue for transplantation” (BAYLOR UNIVERSITY, priority 2016, dated 2020)
